Laboratory results published in the supplement of paper PMC10307832.

Assays:
Test in all cases: relative viability (nuclei count vs DMSO), 5 days (fraction); higher = more cells survive
[1] = compound: CC1=C(C(=O)N2C=CSC2=N1)CCN3CCC(=C(C4=CC=CC=C4)C5=CC=C(C=C5)F)CC3 + C[C@@H](Oc1cc(-c2cnn(C3CCNCC3)c2)cnc1N)c1c(Cl)ccc(F)c1Cl [Crizotinib] (partner 1 µM)
Outline: (§1)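 One day after seeding in 1536-well plates, lung cancer cell lines were dosed by pin tool. Dosing was either single-drug or a fixed anchor-drug dose plus five library-drug doses (not always all listed) in √10 steps. After 5 days, nuclei were stained in one fix-and-stain step and counted on 4× images, and relative viability is the nuclei count of treated wells over that of vehicle wells, given as the median of duplicate plates.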

[2] = compound: CC1=C(C(=O)N2C=CSC2=N1)CCN3CCC(=C(C4=CC=CC=C4)C5=CC=C(C=C5)F)CC3 + CC(=O)c1c(C)c2cnc(Nc3ccc(N4CCNCC4)cn3)nc2n(C2CCCC2)c1=O [Palbociclib] (partner 0.5 µM)
Outline: as §1

[3] = compound: CC1=C(C(=O)N2C=CSC2=N1)CCN3CCC(=C(C4=CC=CC=C4)C5=CC=C(C=C5)F)CC3 + NC(=O)Nc1cc(-c2cccc(F)c2)sc1C(=O)N[C@H]1CCCNC1 [AZD7762] (partner 0.2 µM)
Outline: as §1

[4] = compound: CC1=C(C(=O)N2C=CSC2=N1)CCN3CCC(=C(C4=CC=CC=C4)C5=CC=C(C=C5)F)CC3 + O=C(CCCCCCC(=O)Nc1ccccc1)NO [Vorinostat] (partner 1 µM)
Outline: as §1

| Cell Line | relative viability ([1]; first compound 0.08 µM) | relative viability ([1]; first compound 0.8 µM) | relative viability ([1]; first compound 2.53 µM) | relative viability ([1]; first compound 8 µM) | relative viability ([2]; first compound 0.08 µM) | relative viability ([2]; first compound 0.253 µM) | relative viability ([2]; first compound 0.8 µM) | relative viability ([2]; first compound 2.53 µM) | relative viability ([2]; first compound 8 µM) | relative viability ([1]; first compound 0.253 µM) | relative viability ([3]; first compound 0.08 µM) | relative viability ([3]; first compound 0.253 µM) | relative viability ([3]; first compound 0.8 µM) | relative viability ([3]; first compound 2.53 µM) | relative viability ([3]; first compound 8 µM) | relative viability ([4]; first compound 0.08 µM) | relative viability ([4]; first compound 0.253 µM) | relative viability ([4]; first compound 0.8 µM) | relative viability ([4]; first compound 2.53 µM) | relative viability ([4]; first compound 8 µM) |
| --- | --- | --- | --- | --- | --- | --- | --- | --- | --- | --- | --- | --- | --- | --- | --- | --- | --- | --- | --- | --- |
| EBC-1 | 0.215 | 0.194 | 0.177 | 0.196 |  |  |  |  |  |  |  |  |  |  |  |  |  |  |  |  |
| EKVX | 0.863 | 1.01 | 0.894 | 0.703 | 0.371 | 0.366 | 0.349 | 0.397 | 0.293 | 1.15 | 0.602 | 0.753 | 0.808 | 0.553 | 0.641 | 0.577 | 0.723 | 0.651 | 0.63 | 0.561 |
| EMC-BAC-2 | 0.725 | 0.696 | 0.766 | 0.676 | 0.497 | 0.494 | 0.493 | 0.46 | 0.506 | 0.801 | 1.18 | 0.93 | 1.01 | 1.13 | 1.01 | 0.416 |  | 0.343 | 0.398 | 0.377 |
| EPLC-272H |  | 0.934 | 1.07 | 0.738 | 0.321 | 0.316 | 0.33 | 0.329 | 0.337 | 1.12 | 0.45 | 0.198 | 0.182 | 0.211 | 0.179 | 0.41 |  | 0.444 | 0.505 | 0.474 |
| H3255 | 0.776 | 0.798 | 0.916 | 0.752 | 0.273 | 0.317 | 0.313 | 0.311 | 0.303 | 0.967 | 0.832 | 0.929 | 0.907 | 0.955 | 0.72 | 0.821 | 0.922 | 0.841 | 0.836 | 0.666 |
| HARA | 1 | 1.25 | 1.04 | 0.791 | 0.307 | 0.275 | 0.276 | 0.289 | 0.285 | 1.21 | 0.371 | 0.347 | 0.281 | 0.296 | 0.303 | 0.477 | 0.545 | 0.513 | 0.665 | 0.372 |
| HCC-15 | 0.804 | 0.933 | 0.795 | 0.576 | 0.738 | 0.744 | 0.679 | 0.729 | 0.556 | 0.88 | 1.18 | 1.43 | 1.28 | 1.15 | 1.09 | 0.927 | 0.96 | 0.869 | 0.788 | 0.606 |
| HCC-44 | 0.836 | 0.927 | 0.858 | 0.665 | 0.956 | 0.997 | 1.02 | 1.01 | 0.86 | 0.842 | 1.04 | 1.04 | 1.08 | 1.17 | 1.06 | 1.19 | 1.19 | 1.09 | 1.24 | 0.93 |
| HCC-78 | 0.283 | 0.34 | 0.319 | 0.326 | 0.336 | 0.462 | 0.484 | 0.519 | 0.349 | 0.335 | 0.691 | 0.71 | 0.58 | 0.662 | 0.567 | 0.385 | 0.458 | 0.546 | 0.424 | 0.476 |
